Reference: patent US11357777B2, “Use of sGC stimulators for the treatment of nonalcoholic steatohepatitis (NASH)” (Cyclerion Therapeutics, Inc., priority 2016, dated 2022)

Test system: mice fed a high-fat diet deficient in choline and methionine
Test: Mouse on a methionine/choline deficient high-fat diet (MCD-HFD)
Type: in vivo
Details: for macrophage numbers, inflammatory infiltrate by F4/80 immunohistochemistry: statistically significant; for levels of mRNA expression for all markers of liver fibrosis / levels of mRNA expression for all markers of liver inflammation: vs control Group II
Experimental: The study was performed in mice fed a high-fat diet deficient in choline and methionine (MCD-HFD or MCD diet), a model that reproduces the clinical manifestations of human steatohepatitis and fibrosis in mice. These mice received the sGC stimulator Compound B prophylactically (at two doses, 1 and 3 mg/kg/day in the food), starting at the same time as the start of the administration of the high-fat diet deficient in choline/methionine, and before animals started manifesting clinical signs of steatohepatitis.
The prophylactic treatment with Compound B proceeded for a total of 9 weeks simultaneously with the high-fat diet deficient in choline/methionine administration. At the end of the treatment, the degree of inflammation was assessed in the liver by determining levels of gene expression for IL-6, TNFα, IL-10, MCP-1β, IL-1 and IL-Ira, by real-time PCR. Inflammation levels were also determined by assessing inflammatory infiltrate by F4/80 immunohistochemistry, and necroinflammation was assessed by hematoxylin-eosin staining. Liver fibrosis was determined by measuring levels of gene expression for collagen type I and II, MMP-2, TIMP-1 and TGFβ1 at the mRNA level. Histological analysis was carried out of tissue sections stained with Masson's trichrome and Sirius Red.
Group I (n=5): Chow Control group received a matching sucrose diet equivalent to the high-fat diet (HFD) for 9 weeks.
Group II (n=15): Choline/methionine deficient HFD Control group (MCD control group) received a Choline/methionine deficient HFD diet for 9 weeks.
Group III (n=10): Choline/methionine deficient HFD for 9 weeks supplemented with Compound B dosed in food (1 mg/kg body weight/day). (IW1 group)
Group IV (n=10): Choline/methionine deficient HFD for 9 weeks supplemented with Compound B dosed in food (3 mg/kg body weight/day). (IW3 group)
After treatment, animals were sacrificed and liver and blood samples were collected. The effects of the sGC stimulator on liver weight, steatosis, inflammation and fibrosis were evaluated as follows:
Total RNA was obtained with the RNAqueous kit. RNA concentrations were assessed in a UV-spectrophotometer and the RNA's integrity tested on a 6000 LabChip in a 2100 Bioanalyzer (Agilent Technologies, Palo Alto, Calif.). First strand cDNA synthesis was performed by incubating 1 μg of total RNA with 2.5 μl of 10×RT buffer, 1 μl of 25×dNTPs, 2.5 μl of 10× Primers and 1.25 μl of reverse transcriptase (25 μl final volume) for 10 minutes at 25° C. following 2 hours at 37° C. in a ABI thermal cycler. Ready-to-use primer and probe sets pre-developed by Applied Biosystems (TaqMan Gene Expression Assays) were used to quantify gene expression using R-actin as an endogenous control. Briefly, PCR reactions were performed in duplicate using the Universal TaqMan 2×PCR mastermix in a volume of 20 μl containing 1.25 μl cDNA. Real-time quantitative PCR was performed with an ABI Prism 7900 Sequence Detection System (Applied Biosystems) using the fluorescent TaqMan methodology. Real time PCR results were analyzed with the Sequence Detector Software version 2.1 (Applied Biosystems) and relative quantitation of gene expression was performed using the 2-ΔΔ Ct method. (User Bulletin #2; http://docs.appliedbiosystems.com/pebiodocs/04303859.pdf).
Tissue samples fixed in 10% formalin were embedded in paraffin, cut into 5 μm sections, stained with H&E and analyzed by a registered pathologist unaware of the treatments. Tissue sections were incubated for 10 minutes in 0.5% thiosemicarbazide and stained in 0.1% Sirius Red F3B in saturated picric acid for 1 hour, and subsequently washed with an acetic acid solution (0.5%). Masson's trichrome staining was performed at the Pathology Department of the Hospital Clinic, Barcelona, Spain. […]

[1] = 3 mg/kg in food, 9 weeks (Group IV) vs control Group II
[2] = Group III (1 mg/kg/day), 9 weeks
[3] = Group IV (3 mg/kg/day), 9 weeks

OC(CNc1nc(-c2cc(-c3ccon3)n(Cc3ccccc3F)n2)ncc1F)(C(F)(F)F)C(F)(F)F [Compound B]
Total NAS (1 mg/kg (Group III) vs control group II): reduced
fibrosis as detected using Picrosirius Red staining (1 mg/kg in food, 9 weeks (Group III)): significantly reduced
Total NAS (3 mg/kg (Group IV) vs control group II): reduced
fibrosis as detected using Picrosirius Red staining (3 mg/kg in food, 9 weeks (Group IV)): significantly reduced
liver tissue weight versus total body weight ratio [1]: statistically significant reduction
percentage of white adipose tissue in the liver [1]: statistically significant reduction
reduction of fibrosis by analysis of trichrome stain and α-SMA deposition (1 and 3 mg/kg in food, 9 weeks, FIG. 4): confirmed
macrophage numbers, inflammatory infiltrate by F4/80 immunohistochemistry (Group III (1 mg/kg) vs control group II): decrease
levels of mRNA expression for all markers of liver fibrosis [2]: reduced in a statistically significant manner
levels of mRNA expression for all markers of liver inflammation [2]: reduced in a statistically significant manner
macrophage numbers, inflammatory infiltrate by F4/80 immunohistochemistry (Group IV (3 mg/kg) vs control group II): decrease
levels of mRNA expression for all markers of liver fibrosis [3]: reduced in a statistically significant manner
levels of mRNA expression for all markers of liver inflammation [3]: reduced in a statistically significant manner
